Experimental data reported in patent publication US10947242B2, “[1,2,4]triazolo[1,5and#8208;A]pyrimidine compounds as PDE2 inhibitors” (Janssen Pharmaceutica NV, priority 2016, dated 2021).
Read-outs that look alike come from different tables or passages of the source.

Assays:
Format in all cases: biochemical
[1] = molecular target: T1, Human recombinant PDE3A (hPDE3A) (Homo sapiens, UniProt Q14432); test: In vitro assay PDE3A (SPA, 3H-cAMP hydrolysis);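 also: the method names PDE3A and the table heading PDE3B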
T1 construct: purchased Scottish Biomedical; host or cells: Sf9 insect cells
Method in brief: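 Human PDE3A, cloned from brain, as partially purified Sf9 lysate. Substrate 0.4 μM cAMP plus [3H]-cAMP (2.4 μCi/ml final) in 50 mM Tris pH 7.8, 8.3 mM MgCl2, 1.7 mM EGTA, 60 min at room temperature, 1% DMSO final. Hydrolysis read by SPA scintillation counting against no-enzyme blanks and DMSO controls.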

[2] = molecular target: T2, Human recombinant PDE2A (hPDE2A) (Homo sapiens, UniProt O00408); test: In vitro assay PDE2A (SPA, 3H-cGMP hydrolysis); details: for IC50: read-out: hPDE2A pIC50 (converted); for Emax: read-out: hPDE2A Emax
T2 construct: His tag (inferred from metal chelate purification); made in house; host or cells: Sf9 insect cells (baculovirus)

[3] = molecular target: T3, Human recombinant PDE10A (hPDE10A) (Homo sapiens, UniProt Q9Y233); test: In vitro assay PDE10A, human clone (SPA, 3H-cAMP hydrolysis); details: human clone (h), default
T3 construct: His tag (inferred from metal chelate purification); made in house; host or cells: Sf9 insect cells (baculovirus)
Method in brief: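 Human recombinant PDE10A was expressed in Sf9 cells via baculovirus and incubated with compound in 50 mM Tris pH 7.8, 8.3 mM MgCl2, 1.7 mM EGTA. Substrate was 60 nM cAMP plus 0.008 μCi 3H-cAMP for 60 min at room temperature, read by SPA scintillation counting. Controls used 1% DMSO, and blanks omitted enzyme.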

T2 sequence (O00408 whole entry): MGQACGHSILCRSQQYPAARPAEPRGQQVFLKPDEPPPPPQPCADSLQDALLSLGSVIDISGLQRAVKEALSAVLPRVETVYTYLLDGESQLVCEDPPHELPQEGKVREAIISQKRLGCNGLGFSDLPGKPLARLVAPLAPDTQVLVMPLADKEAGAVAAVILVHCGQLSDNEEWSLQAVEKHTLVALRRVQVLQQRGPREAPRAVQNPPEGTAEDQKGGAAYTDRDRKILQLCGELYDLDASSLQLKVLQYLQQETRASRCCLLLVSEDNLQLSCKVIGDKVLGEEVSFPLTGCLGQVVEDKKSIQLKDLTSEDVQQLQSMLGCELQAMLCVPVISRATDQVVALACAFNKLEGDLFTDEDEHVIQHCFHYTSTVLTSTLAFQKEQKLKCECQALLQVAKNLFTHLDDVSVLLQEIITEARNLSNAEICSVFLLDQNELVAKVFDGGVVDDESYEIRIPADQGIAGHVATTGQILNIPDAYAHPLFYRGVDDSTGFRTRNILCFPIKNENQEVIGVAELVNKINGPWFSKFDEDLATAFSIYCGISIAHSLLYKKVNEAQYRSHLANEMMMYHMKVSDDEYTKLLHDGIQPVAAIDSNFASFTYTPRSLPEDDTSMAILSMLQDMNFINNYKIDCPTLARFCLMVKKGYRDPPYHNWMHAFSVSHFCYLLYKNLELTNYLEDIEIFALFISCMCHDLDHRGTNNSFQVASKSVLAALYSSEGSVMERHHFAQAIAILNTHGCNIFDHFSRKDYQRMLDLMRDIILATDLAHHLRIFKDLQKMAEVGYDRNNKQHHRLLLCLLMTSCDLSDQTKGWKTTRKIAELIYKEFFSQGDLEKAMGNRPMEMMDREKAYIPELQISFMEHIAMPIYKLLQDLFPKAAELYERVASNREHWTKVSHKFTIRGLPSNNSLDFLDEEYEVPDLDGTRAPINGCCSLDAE
T1 sequence (Q14432 whole entry): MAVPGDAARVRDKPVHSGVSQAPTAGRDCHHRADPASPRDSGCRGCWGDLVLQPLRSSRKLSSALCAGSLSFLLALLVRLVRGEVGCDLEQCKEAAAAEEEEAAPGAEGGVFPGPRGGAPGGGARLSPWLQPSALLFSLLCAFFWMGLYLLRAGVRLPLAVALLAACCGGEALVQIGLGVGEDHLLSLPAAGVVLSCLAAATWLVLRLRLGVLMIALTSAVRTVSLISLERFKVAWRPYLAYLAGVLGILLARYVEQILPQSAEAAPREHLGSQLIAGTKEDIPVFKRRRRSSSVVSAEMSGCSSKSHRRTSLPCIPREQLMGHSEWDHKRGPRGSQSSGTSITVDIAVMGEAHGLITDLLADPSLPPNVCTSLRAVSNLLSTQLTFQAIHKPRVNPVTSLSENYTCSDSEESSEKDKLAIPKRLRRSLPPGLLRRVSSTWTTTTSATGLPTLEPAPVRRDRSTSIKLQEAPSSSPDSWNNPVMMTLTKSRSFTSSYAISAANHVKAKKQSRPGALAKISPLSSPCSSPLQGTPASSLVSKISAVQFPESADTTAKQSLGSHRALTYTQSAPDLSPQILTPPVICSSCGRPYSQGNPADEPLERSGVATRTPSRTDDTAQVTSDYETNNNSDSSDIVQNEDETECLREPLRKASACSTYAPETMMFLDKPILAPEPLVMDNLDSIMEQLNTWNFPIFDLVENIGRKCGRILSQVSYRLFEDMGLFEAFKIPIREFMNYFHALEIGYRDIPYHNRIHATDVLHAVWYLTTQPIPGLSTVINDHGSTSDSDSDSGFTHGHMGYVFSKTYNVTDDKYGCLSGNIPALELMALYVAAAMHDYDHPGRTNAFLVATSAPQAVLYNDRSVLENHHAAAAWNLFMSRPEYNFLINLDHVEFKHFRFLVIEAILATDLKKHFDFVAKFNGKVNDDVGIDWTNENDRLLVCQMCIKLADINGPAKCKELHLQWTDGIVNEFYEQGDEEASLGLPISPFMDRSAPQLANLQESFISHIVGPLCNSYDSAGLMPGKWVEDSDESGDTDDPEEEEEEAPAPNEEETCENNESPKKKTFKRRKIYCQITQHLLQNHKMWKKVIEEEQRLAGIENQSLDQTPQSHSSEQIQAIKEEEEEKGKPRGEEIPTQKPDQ
T3 sequence (Q9Y233 267-1055): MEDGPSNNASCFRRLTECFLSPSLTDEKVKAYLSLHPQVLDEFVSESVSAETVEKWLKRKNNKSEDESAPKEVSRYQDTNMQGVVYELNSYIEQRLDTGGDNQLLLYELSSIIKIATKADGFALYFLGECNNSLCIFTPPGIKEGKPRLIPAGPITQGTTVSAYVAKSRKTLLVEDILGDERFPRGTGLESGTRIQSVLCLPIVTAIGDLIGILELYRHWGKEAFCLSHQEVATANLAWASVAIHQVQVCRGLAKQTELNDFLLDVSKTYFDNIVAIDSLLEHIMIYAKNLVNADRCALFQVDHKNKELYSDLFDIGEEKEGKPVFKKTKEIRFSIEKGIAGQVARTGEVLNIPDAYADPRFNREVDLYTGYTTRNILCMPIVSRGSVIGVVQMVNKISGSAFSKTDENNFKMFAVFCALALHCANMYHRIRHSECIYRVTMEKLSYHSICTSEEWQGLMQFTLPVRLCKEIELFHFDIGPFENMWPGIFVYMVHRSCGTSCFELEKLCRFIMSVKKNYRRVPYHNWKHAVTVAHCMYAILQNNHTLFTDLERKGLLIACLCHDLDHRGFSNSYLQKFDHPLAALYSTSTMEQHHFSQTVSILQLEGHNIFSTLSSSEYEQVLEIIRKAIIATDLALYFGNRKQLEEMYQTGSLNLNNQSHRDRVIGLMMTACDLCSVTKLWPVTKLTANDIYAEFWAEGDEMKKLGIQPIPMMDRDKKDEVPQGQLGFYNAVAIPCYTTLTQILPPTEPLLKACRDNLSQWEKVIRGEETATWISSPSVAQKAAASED

IC50 ([1]; hPDE3B pIC50, read-out: pIC50 (converted)): 145 nM
Emax ([1]; read-out: hPDE3B Emax, read-out: Emax): 96%
IC50 ([2]; human recombinant PDE2A, 10 μM cGMP substrate): 0.229 nM
Emax ([2]; human recombinant PDE2A): 104%
Emax [2]: 104%
IC50 [2]: 0.229 nM
Emax ([3]; read-out: hPDE10A2 Emax): 101%
IC50 ([3]; read-out: hPDE10A2 pIC50 (converted)): 20.9 nM
SMILES: C[C@@H]1CCN(C(=O)c2ccc3c(ccn3CCF)c2)C[C@H]1c1cc(C(F)F)nc2ncnn12 [Compound 89]
